Measurements reported in publication PMC7177757, “The Aquaporin-3-Inhibiting Potential of Polyoxotungstates” (International Journal of Molecular Sciences, 2020).

What was measured:
aquaporin-3 (AQP3) [1] = molecular target: T1, aquaporin-3 (AQP3) (Homo sapiens, UniProt Q92482); test: stopped-flow glycerol permeability in hRBCs; assay type: cell-based; design: native AQP3 in human red blood cells; conditions: red blood cells
T1 sequence (Q92482 1-292): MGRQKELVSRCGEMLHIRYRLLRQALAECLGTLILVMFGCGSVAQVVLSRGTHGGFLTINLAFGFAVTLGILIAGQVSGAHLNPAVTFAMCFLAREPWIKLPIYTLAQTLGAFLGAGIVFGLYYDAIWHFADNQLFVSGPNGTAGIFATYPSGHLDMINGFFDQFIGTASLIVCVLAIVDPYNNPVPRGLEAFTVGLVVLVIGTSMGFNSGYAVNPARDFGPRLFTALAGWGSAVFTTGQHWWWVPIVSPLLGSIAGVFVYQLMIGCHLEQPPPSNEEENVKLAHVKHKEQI

aquaporin-3 (AQP3) [2] = molecular target: T1, aquaporin-3 (AQP3); test: stopped-flow glycerol permeability in hRBCs; confirmed in yeast expressing human AQP3; assay type: cell-based; design: native AQP3 in human red blood cells (IC50); conditions: red blood cells

| IC50 (aquaporin-3 (AQP3) [1]) | IC50 (aquaporin-3 (AQP3) [2]) | Substance |
| --- | --- | --- |
| 2.78 ± 0.09 µM | – | P2W12 |
| – | 0.8 ± 0.04 µM | P2W18 |
| 3.24 ± 0.03 µM | – | P5W30 |
